Values of other authors as cited in US20250169496A1, “USE OF 2-AMINO-3-HYDROXY-3-METHYLBUTYRIC ACID AND/OR 2-AMINO-3-(4-HYDROXYPHENYL) BUTYRIC ACID” (NANJING TIANNONG BIOTECHNOLOGY CO., LTD., priority 2021, published 2025).

Test system: Lactobacihs arabinosu
Settings: cited from earlier work

## CC(C)(O)[C@H](N)C(=O)O [L-2-amino-3-hydroxy-3-methylbutyric acid]
  Inhibition of the synthesis of valine: could inhibit the synthesis of valine
